Experimental data taken from patent US7232809B2, “Mitochondrially targeted antioxidants” (Antipodean Pharmaceuticals, Inc., priority 1997, dated 2007).
Where two headings read alike, the source gives them in different places. Blank lines part the entries; values can stand above or below the compound they belong to.

Assays:
[1] = tested on: rat liver mitochondria; assay: Reduction of mitoquinone by intact mitochondria (A275); type: biochemical
Method: Rat liver mitochondria (100 μg/ml) were incubated in 120 mM KCl, 10 mM HEPES, 1 mM EGTA, pH 7.2 at 20° C. and A275 monitored. In panel A rotenone and succinate (5 mM) were present and mitoquinone (50 μM) was added where indicated. This experiment was repeated in the presence of malonate (20 mM) or FCCP ([…]). In panel B glutamate and malate (5 mM of each) were present from the start and mitoquinone (50 μM) was added where indicated. This experiment was repeated in the presence of FCCP or with rotenone and FCCP.

[2] = tested on: rat liver mitochondria
[3] = Octan-1-ol/PBS partition coefficient; type: physicochemical; conditions: 200 μM, room temperature, 1 h, means±SEM of three
Method: (§1) The IC50 values for inhibition of lipid peroxidation were determined in rat brain homogenates, and are means±SEM or range of determinations on 2–3 brain preparations. Octan-1-ol/PBS partition coefficients are means±SEM for three independent determinations. N.D. not determined. Partition coefficients were determined by mixing 200 μM of the compound in 2 ml water-saturated octanol-1-ol with 2 ml octanol-saturated-PBS at room temperature for 1 h, then the two layers were separated by brief centrifugation and their concentrations determined spectrophotometrically from standard curves prepared in PBS or octanol. To measure antioxidant efficacy four rat brains were homogenised in 15 ml 40 mM potassium phosphate (pH 7.4), 140 mM NaCl at 4° C., particulate matter was pelleted (1,000×g at 4° C. for 15 min) and washed once and the combined supernatants stored frozen. Aliquots were rapidly thawed and 5 mg protein suspended in 800 μl PBS containing antioxidant or ethanol carrier and incubated at 37° C. for 30 min. Thiobarbituric acid reactive species (TBARS) were quantitated at 532 nm by adding 200 μl conc. HClO4 and 200 μl 1% thiobarbituric acid to the incubation, heating at 100° C. for 15 min and then cooling and clarification by centrifugation (10,000×g for 2 min).

[4] = tested on: rat brain homogenates; assay: Inhibition of lipid peroxidation in rat brain homogenates (TBARS assay); type: biochemical
Method: The rat brain homogenates were incubated with or without various concentrations of the test compounds (compound 1; native Vitamin E (α-tocopherol), bromobutyl triphenylphosphonium bromide, Trolox (a water soluble form of Vitamin E) and compound 2, ie2-(2-bromoethyl)-3,4-dihydro-2,5,7,8-tetramethyl-2H-1-benzopyran-6-ol, the precursor of compound 1 (“Brom Vit E”)) and the oxidative damage occurring over the incubation was quantitated using the TBARS assay (Stocks et al., 1974, Clin Sci Mol Med 47,215–222). From this the concentration of compound required to inhibit oxidative damage by 50% was determined. In this system 210 nM compound 1 inhibited oxidative stress by 50% while the corresponding value for native Vitamin E was 36 nM. The value for bromobutyltriphenylphosphonium bromide, which contains the triphenylphosphonium moiety but not the antioxidant Vitamin E moiety was 47 μM. […] Further details of the experimental procedures and results are set out below.
as §1

[5] = Stability of the quinol form in air; type: physicochemical
Method: The quinone was reduced to the quinol by taking a mixture of crude quinone and quinol (73 mg, ca. 3:1 by 1H NMR) in methanol (1 mL) was added NaBH4 (21 mg, 0.55 mmol). The mixture was stirred slowly under an argon atmosphere for 10 min. Excess NABH4 was quenched with 5% HBr (0.2 mL) and the mixture extracted with CH2Cl2. The organic extract was washed with H2O (3×5 mL). Solvent was removed under reduced pressure, giving a mixture of quinone and quinol (ca 1:5 by ^1H NMR) as a pale yellow solid (55 mg). For routine preparation of the quinol form the ethanolic solution, dissolve in 5 vols of water, (=1 ml) add a pinch of NaBH4 leave on ice in the dark for 5 min, then extract 3×0.5 ml dichloromethane, Wash with water/HCl etc blow off in nitrogen, dissolve in same vol of etoh and take spectrum and store at −80 under argon. Yield about 70–80%. […] Collect the upper organic phase and evaporate to dryness under a stream of N2 and dissolve in 1 ml ethanol acidified to pH 2.

[6] = tested on: rat liver mitochondria; assay: Uptake of radiolabelled mitoquinol by energised mitochondria; type: in vitro ADME; conditions: tritiated compound, reversed by FCCP
Method: The next step was to see if mitoquinol was accumulated by energised mitochondria. To do this a tritiated version of the compound was made, incubated with energised mitochondria and the amount taken up into the mitochondria determined.

[7] = target: T1, beef heart mitochondrial membranes, Complex III (Bos taurus, UniProt P00157+P13272); assay: Oxidation of mitoquinol by beef heart mitochondrial membranes (Complex III) and reduction of cytochrome c; type: biochemical
T1 construct: from tissue; host or cells: beef heart mitochondrial membranes

[8] = tested on: rat liver mitochondria; assay: Toxicity of mitoquinol to isolated mitochondria (membrane potential, respiration rate)
Method: In A rat liver mitochondria energised with succinate were incubated with various concentrations of mitoquinol and the membrane potential determined as a percentage of control incubations. In B the respiration rate of succinate energised mitochondria under state 4 (black), state 3 (white) and uncoupled (stippled) conditions, as a percentage of control incubations.
The next assays were to determine the toxicity of these compounds to mitochondria and cells. To determine the toxicity to isolated mitochondria the effect on membrane potential and respiration rate were measured (FIG. 16).

[9] = tested on: pentane extracted beef heart mitochondria; assay: Reactions with pentane-extracted beef heart mitochondria; type: biochemical; conditions: for restoration of NADH oxidation: pentane extracted beef heart mitochondria, NADH 125 μM, 50 μM compound
Method: Pentane extracted beef heart mitochondria (100 μg protein/ml) were suspended in 50 mM sodium phosphate, pH 7.2 at 20° C. In Panel A NADH (125 μM) was added and A340 was monitored and ubiquinone-1 (UQ-1; 50 μM added where indicated. This was repeated in Panel b, except that mitoubiquinone (50 μM) was added. In Panel C pentane extracted mitochondria were incubated with mitoquinone (50 μM), A275 was monitored and succinate (5 mM) and malonate (20 mM) added where indicated. In Panel D pentane-extracted mitochondria were incubated with NADH (125 μM), ferricytochrome c (50 μM) and A550 was monitored and mitoquinone (50 μM) was added where indicated. Addition of myxathiazol inhibited the rate of reduction by about 60–70%;
Mitoquinone/ol may be picking up and donating electrons directly from the active sites of the respiratory complexes, or it could be equilibrating with the endogenous mitochondrial ubiquinone pool. To address this question the endogenous ubiquinone pool was removed from beef heart mitochondria by pentane extraction.

[10] = target: T2, beef heart mitochondrial membranes, Complex II (Bos taurus, UniProt P35720+Q3T189+Q95123); assay: Reduction of mitoquinone by beef heart mitochondrial membranes with succinate (Complex II); type: biochemical
T2 construct: from tissue; host or cells: beef heart mitochondrial membranes
T2 sequence (P35720 30-169): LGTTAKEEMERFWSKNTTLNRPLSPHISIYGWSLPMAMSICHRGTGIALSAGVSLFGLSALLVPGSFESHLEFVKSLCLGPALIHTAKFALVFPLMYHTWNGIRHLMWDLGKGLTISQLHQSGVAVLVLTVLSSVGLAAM
T2 sequence (Q95123 56-158): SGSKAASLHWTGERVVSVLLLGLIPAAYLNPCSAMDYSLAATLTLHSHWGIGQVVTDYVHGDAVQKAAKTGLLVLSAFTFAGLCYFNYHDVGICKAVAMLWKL
T2 sequence (Q3T189 29-280): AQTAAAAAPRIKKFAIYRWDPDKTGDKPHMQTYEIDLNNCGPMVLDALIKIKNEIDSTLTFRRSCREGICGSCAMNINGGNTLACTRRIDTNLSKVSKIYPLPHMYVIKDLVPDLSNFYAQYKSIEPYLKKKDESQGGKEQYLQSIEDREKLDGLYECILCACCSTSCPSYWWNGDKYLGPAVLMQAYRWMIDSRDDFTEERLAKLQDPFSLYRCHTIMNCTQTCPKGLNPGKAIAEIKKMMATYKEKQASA
T2 sequence (P31039 44-665 partner): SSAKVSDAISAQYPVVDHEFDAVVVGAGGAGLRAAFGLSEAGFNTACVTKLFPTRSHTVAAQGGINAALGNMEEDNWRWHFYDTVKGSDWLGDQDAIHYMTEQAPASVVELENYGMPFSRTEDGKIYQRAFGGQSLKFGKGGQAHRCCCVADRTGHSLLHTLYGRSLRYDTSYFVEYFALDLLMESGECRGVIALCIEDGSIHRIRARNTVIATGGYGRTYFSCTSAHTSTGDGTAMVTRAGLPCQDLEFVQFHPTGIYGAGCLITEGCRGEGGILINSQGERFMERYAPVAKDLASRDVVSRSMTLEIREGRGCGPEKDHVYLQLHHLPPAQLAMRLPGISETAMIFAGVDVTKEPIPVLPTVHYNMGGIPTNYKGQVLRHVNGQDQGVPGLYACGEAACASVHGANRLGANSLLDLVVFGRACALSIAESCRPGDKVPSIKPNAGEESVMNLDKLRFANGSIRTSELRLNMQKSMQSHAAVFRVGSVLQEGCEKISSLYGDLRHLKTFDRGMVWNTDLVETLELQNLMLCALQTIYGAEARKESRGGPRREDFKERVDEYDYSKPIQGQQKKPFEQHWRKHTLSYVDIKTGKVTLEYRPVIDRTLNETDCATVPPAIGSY
Method: FIGS. 12A to 12D show reactions of [10-(6′-ubiquinonyl)decyltriphenylphosphonium bromide] (“mitoquinone”) and the reduced form of the compound (“mitoquinol”) with mitochondrial membranes. Beef heart mitochondrial membranes (20 μg/ml) were suspended in 50 mM sodium phosphate, pH 7.2 at 20° C. In panel A rotenone and antimycin were present and for the t=0 scan, then succinate (5 mM) was added and scans repeated at 5 minute intervals as indicated. In panel B A275 was monitored in the presence of rotenone and antimycin and then mitoquinone (50 μM) was added, followed by succinate (5 mM) and malonate (20 mM) where indicated. In Panel C rotenone, ferricytochrome c (50 μM) and malonate (20 mM) were present, A275 was monitored and mitoquinol (50 μM) and myxathiazol (10 μM) were added where indicated. In panel D A550 was monitored and the experiment in Panel C was repeated in the presence of KCN. Addition of myxathiazol inhabited this rate by about 60–70%.
To determine whether the mitochondrial respiratory chain could also oxidise or reduce the compound mitoquinone was incubated with beef heart mitochondrial membranes (FIG. 12). In panel A the spectrum of fully oxidised mitoquinone in the presence of antimycin inhibited membranes is shown (t=0; FIG. 12A). Addition of succinate led to the gradual reduction of the […] as measured by repeating the measurement every five minutes and showing that the peak at 275 nm gradually disappeared, the presence of antimycin prevented the oxidation of the quinol by mitochondrial complex III.
The reduction of mitoquinone can be followed continuously at A275 nm (FIG. 12B). […] The rate of reduction of mitoquinone was 51±9.9 nmol/min/mg protein, which compares with the rate of reduction of cytochrome c by succinate in the presence of KCN of 359 nmol/min/mg. Allowing for the 2 electrons required for mitoquinone reduction compared with 1 for cytochrome c the rate of electron flux into the mitoquinone pool is of similar order to the electron flux through the respiratory chain.

[11] = target: ferricytochrome c (Homo sapiens, UniProt P99999); assay: Reactions of mitoquinone in the absence of mitochondrial membranes; type: biochemical
ferricytochrome c, sequence (P99999 whole entry): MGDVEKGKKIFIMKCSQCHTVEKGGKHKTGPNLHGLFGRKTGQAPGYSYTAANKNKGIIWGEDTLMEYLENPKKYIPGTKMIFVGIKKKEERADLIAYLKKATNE
Method: FIGS. […] In panel A rotenone and antimycin were present and for the t=0 scan, then succinate (5 mM) was added and scans repeated at 5 minute intervals as indicated. In panel B A275 was monitored in the presence of rotenone and antimycin and then mitoquinone (50 μM) was added, followed by succinate (5 mM) and malonate (20 mM) where indicated. In Panel C rotenone, ferricytochrome c (50 μM) and malonate (20 mM) were present, A275 was monitored and mitoquinol (50 μM) and myxathiazol (10 μM) were added where indicated. In panel D A550 was monitored and the experiment in Panel C was repeated in the presence of KCN. Addition of myxathiazol inhabited this rate by about 60–70%.

[12] = TBARS, read-out: concentration that inhibited oxidative stress by 50%
[13] = means±SEM or range, 2–3 brain preparations, read-out: IC50 for inhibition of lipid peroxidation

SMILES: BrCCCC[P+](c1ccccc1)(c1ccccc1)c1ccccc1.[Br-] [BrBTP, bromobutyltriphenylphosphonium bromide]
- Octanol:PBS partition coefficient [3]: 3.83 ± 0.22
- IC50 [4, 12]: 47 µM

SMILES: COc1c(O)c(C)c(CCCCCCCCCC[P+](c2ccccc2)(c2ccccc2)c2ccccc2)c(O)c1OC [mitoquinol, 10-(6′-ubiquinolyl)decyltriphenylphosphonium bromide]
- stability in air [5]: Oxidises rapidly in air
- accumulation by energised mitochondria [6]: accumulated rapidly
- inhibition of rate by myxathiazol ([7]; FIG. 12 panel D, KCN present, myxathiazol 10 μM): 60–70%
- initial rate of oxidation of mitoquinol ([7]; membranes inhibited with rotenone and malonate, mean of 2 +/- range): about 89±9 mmol mitoquinol/min/mg protein
- initial rate of reduction of cytochrome c on addition of mitoquinol ([7]; membranes supplemented with ferricytochrome c, mean+/-range): about 93+/−13 nmol/min/mg
- cytochrome c reduction not blocked by myxathiazol ([7]; myxathiazol): 30–40%
- effect on mitochondrial function ([8]; 10 μM): little effect on mitochondrial function
- effect on mitochondrial function ([8]; 25 μM and above): some uncoupling and inhibition of respiration

SMILES: COC1=C(OC)C(=O)C(CC=C(C)C)=C(C)C1=O [ubiquinone-1, reference compound]
- restoration of NADH oxidation [9]: partially restored

SMILES: COC1=C(OC)C(=O)C(CCCCCCCCCC[P+](c2ccccc2)(c2ccccc2)c2ccccc2)=C(C)C1=O [mitoquinone, 10-(6′-ubiquinonyl)decyltriphenylphosphonium bromide]
- proportion reduced by succinate ([10]; antimycin inhibited beef heart membranes, succinate 5 mM): about 23%
- Eh corresponding to proportion reduced ([10]; equilibration with succinate/fumarate couple): about +8 mV
- rate of reduction of mitoquinone ([10]; rotenone inhibited membranes, succinate): 51±9.9 nmol/min/mg protein
- reaction on mixing with 50 μM ferricytochrome c ([11]; 50 μM, A550): some reduction of A550
- reaction with succinate or NADH in the absence of mitochondrial membranes ([11]; no membranes): no reaction
- reduction by intact energised mitochondria ([1]; rat liver mitochondria, 50 μM): rapidly reduced
- decrease of rate of reduction with FCCP ([1]; uncoupler FCCP present): 2–3 fold
- restoration of NADH oxidation [9]: restored NADH oxidation
- inhibition of NADH-ferricytochrome c activity by myxathiazol ([9]; pentane extracted mitochondria, mitoquinone 50 μM): 60–70%

SMILES: Cc1c(C)c2c(c(C)c1O)CCC(C)(CCBr)O2 (stereo not drawn) [Bromo Vit E, 2-(2-bromoethyl)-3,4-dihydro-6-hydroxy-2,5,7,8-tetramethyl-2H-1-benzopyran]
- Octanol:PBS partition coefficient [3]: 33.1 ± 4.4
- IC50 [4, 13]: 0.045 ± 0.026 µM

The next lines start with results.

- proportion membrane-bound within mitochondria [2]: About 60%
SMILES: C[P+](c1ccccc1)(c1ccccc1)c1ccccc1 [TPMP, methyltriphenylphosphonium, reference compound]
- change in A275 ([1]; 50 μM added instead of mitoquinone): did not lead to changes in A275

- Octanol:PBS partition coefficient [3]: 27.4 ± 1.0
- IC50 [4, 12]: 0.036 µM
SMILES: Cc1c(C)c2c(c(C)c1O)CC[C@@](C)(CCC[C@H](C)CCC[C@H](C)CCCC(C)C)O2 [α-Tocopherol, α-tocopherol]

- IC50 [4, 13]: 18.5 ± 5.9 µM
SMILES: Cc1c(C)c2c(c(C)c1O)CCC(C)(C(=O)O)O2 (stereo not drawn) [Trolox]
